Assay results as given in PMC8744071 (ACS infectious diseases, 2021).
Entries after “also recorded” stand apart in the source; their conditions may differ. Where a SMILES comes first, the peptide text is derived from it. Primed or numbered codes have the meaning given here. Where no end group is shown, it is not given here. Side-chain parts run from the residue outwards. [ ]: non-standard residue; d: D form. The star is where a group is joined. CB‑TE1A1P = O=C(CN1CCCN2CCN(CCCN(CP(=O)(O)O)CC2)CC1)*; cinnamoyl = O=C(/C=C/c1ccccc1)*; PEG12′ = not defined here

Key:
[1] = molecular target: T1, FPR1 (Homo sapiens, UniProt P21462); experiment: FPR1 receptor internalization in GFP-FPR1 HEK293T cells; format: cell-based; settings: fluorescence imaging, vs untreated controls
T1 sequence (P21462 1-350): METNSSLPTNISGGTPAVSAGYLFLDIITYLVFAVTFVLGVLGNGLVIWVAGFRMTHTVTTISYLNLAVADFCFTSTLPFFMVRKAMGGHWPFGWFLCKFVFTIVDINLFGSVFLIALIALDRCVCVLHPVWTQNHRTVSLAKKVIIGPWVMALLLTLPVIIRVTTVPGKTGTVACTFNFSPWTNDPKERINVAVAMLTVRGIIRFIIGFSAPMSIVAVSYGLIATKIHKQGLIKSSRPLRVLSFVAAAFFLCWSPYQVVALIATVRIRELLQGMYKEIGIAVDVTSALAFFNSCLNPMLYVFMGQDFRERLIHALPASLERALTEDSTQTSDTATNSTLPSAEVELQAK

[2] = Gamma counting of Percoll-separated blood fractions; format: in vivo, cynomolgus macaques (Macaca fascicularis); settings: Percoll gradient separation: RBC pellet, buffy coat, plasma
[3] = tested on: Gr-1 stained neutrophils; experiment: Immunofluorescence microscopy of CFA-injected mouse paws; format: in vivo; settings: inflamed mouse paw, 5 h postprobe injection, frozen sections
[4] = tested on: lung granulomas; settings: cynomolgus monkey, in vivo

In the case of “FLFLF-PEG12: pegylated FLFLF tested for FPR1 internalization (cinnamoyl-F[dL]F[dL]FK([PEG12′-CB‑TE1A1P]); also: CB-TE1A1P chelating 64Cu)”, the “FPR1 internalization / signaling” value [1] is reported as “did not lead to internalized receptor”.

With `CC(C)C[C@@H](NC(=O)[C@H](Cc1ccccc1)NC(=O)[C@@H](CC(C)C)NC(=O)[C@H](Cc1ccccc1)NC(=O)C=Cc1ccccc1)C(=O)N[C@@H](Cc1ccccc1)C(=O)O` [FLFLF, N-cinnamoyl-F-(D)L-F-(D)L-F] (HELM PEPTIDE1{[O=C(C=Cc1ccccc1)[*:2]].F.[dL].F.[dL].F}$$$$V2.0) the “Distribution of FLFLF in peripheral blood fractions” value [2] was “remains in the plasma fraction rather than being bound to blood cells”.

With “cinnamoyl-F(D)LF(D)LFK-PEG12-Cy3 [Cy3-FLFLF]” the “Cy3-FLFLF labeling of cells in tissue / colocalization with Gr-1” value [3] was “labeled neutrophils could be detected in tissues by immunofluorescence, although other non-Gr-1-stained cells were detectable; also recorded: variable amounts of colocalization of Cy3-FLFLF and Gr-1”.

With “2-deoxy-2-(^18F)fluoro-D-glucose [^18F-FDG]” the “18F-FDG liver uptake by PET/CT” value [4] was “minimal” and the “18F-FDG uptake in lung granulomas by PET/CT” value [4] was “readily identifiable above lung background”.
